Measured values published in patent publication US20250179017A1 (GUANGDONG NEWOPP BIOPHARMACEUTICALS CO., LTD., priority 2022, published 2025).

Experiments:
[1] = molecular target: T1, human EP4 (EP4R) (Homo sapiens, UniProt P35408); test: EP4 antagonist assay (HEK-293 CNG membrane potential cAMP assay / 293T SEAP reporter assay, PGE2-stimulated); type: cell-based; conditions: EP4 antagonist activity; concentration for inhibition of signal compared to DMSO
T1 construct: Cayman Chemical (Human EP4 Reporter Assay Kit)
Source text: 1. The HEK-293 CNG (Cyclic Nucleotide Gated) cell line expressing a modified CNG channel that leads to cell membrane depolarization in response to elevated intracellular cAMP levels, which can be measured using a fluorescent membrane potential dye, was engineered to express human EP2 (PTGER2) or EP4 (EP4R). The resulting cell line ACTOne™ PTGER2 or ACTOne™ EP4R as well as the fluorescent membrane potential dye were purchased from eEnzyme (Gaithersburg, MD, US) and used in this assay. Briefly, cells were plated at 1.2×10^4 cells/well in 20 μL DMEM supplemented with 2% Fetal Bovine Serum (FBS, VWR International), 1x Penicillin/Streptomycin (GenClone), 0.2 μg/mL puromycin (InvivoGen) and 50 μg/mL G418 (InvivoGen) on a 384 well plate (Greiner). The next day, cells were dye-loaded with 20 μL/well of 1x Dye-loading solution (eENZYME) following the manufacturer's instruction. After 2 hours of incubation at room temperature (RT) in the dark, a pre-read was made to obtain the background signals using CLARIOstar plate reader (BMG LABTECH, Germany) with the following filter settings: excitation=530/20 nm, emission=590/20 nm. Next, a serial dilution of compound (plus a DMSO control) were added to the plate (5 μL/well) and the reaction was incubated at RT for 15 min before adding 5 μL of PGE2 to every well for a final concentration of 5 nM. All wells were duplicated. The plate was then further incubated at RT for 30 min prior to a final read with the same machine settings. Background-subtracted signals were used to calculate IC50 values.
2. Human EP2 and EP4 Reporter Assay Kits were purchased from Cayman Chemical (Ann Arbor, MI, USA). The assay was performed following the provided User Manual. Briefly, a reverse transfection was performed by seeding 6.0×10^4 of 293T cells (ATCC) to each well of the provided Strip Plate coated with a proprietary transfection complex containing DNA constructs for expressing human EP2 or EP4 and a cAMP response element regulated secreted alkaline phosphatase (SEAP) reporter, in 200 μL DMEM supplemented with 2% FBS and incubated for 20-24 hours at 37° C. with 5% CO2. After the incubation, the culture medium was carefully removed, and the cells were replenished with 150 μL pre-warmed serum-free medium. PGE2 and test compounds were prepared together at 4x the desired final concentration, and 50 μL was added to each assigned well with the final concentration of 13 nM and 2 nM PGE2 for EP2 and EP4 assay, respectively. After 6-8 hours of incubation, 10 μL media from each well was transferred to corresponding well of a new plate, which was then sealed and incubated at 65° C. for 30 min. The plate was then cooled down to RT and 50 μL SEAP substrate was added to each well. Luminescence signal was measured using a CLARIOstar plate reader.
The IC50 value was determined as the concentration for […] inhibition of signal compared to DMSO (A: IC50≤100 nM; B: IC50 between 100 nM and 1,000 nM; C: IC50≥1,000 nM).

[2] = molecular target: T2, human EP2 (PTGER2) (Homo sapiens, UniProt P43116); test: EP2 antagonist assay (HEK-293 CNG membrane potential cAMP assay / 293T SEAP reporter assay, PGE2-stimulated); type: cell-based; conditions: EP2 antagonist activity; concentration for 50% inhibition of signal compared to DMSO
T2 construct: Cayman Chemical (Human EP2 Reporter Assay Kit)
Summary of the method: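 Two formats. In a CRE-SEAP reporter assay, reverse-transfected 293T cells received compound with PGE2 (13 nM final) for 6-8 h, then luminescence was read. In the ACTOne CNG format, HEK-293 cells were preincubated with compound for 15 min at RT, stimulated with 5 nM PGE2 for 30 min, and read by membrane-potential dye fluorescence. IC50 was taken versus DMSO.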

T2 sequence (P43116 whole entry): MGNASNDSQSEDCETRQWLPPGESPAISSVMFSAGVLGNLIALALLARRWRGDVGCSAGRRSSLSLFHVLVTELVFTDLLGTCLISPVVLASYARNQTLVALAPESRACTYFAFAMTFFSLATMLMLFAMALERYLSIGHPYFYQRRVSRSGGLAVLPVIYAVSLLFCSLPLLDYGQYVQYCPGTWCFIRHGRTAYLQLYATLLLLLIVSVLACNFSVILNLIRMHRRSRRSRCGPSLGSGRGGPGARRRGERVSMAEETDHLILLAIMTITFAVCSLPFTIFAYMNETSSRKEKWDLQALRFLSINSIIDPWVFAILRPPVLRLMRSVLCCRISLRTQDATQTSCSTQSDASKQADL
T1 sequence (P35408 whole entry): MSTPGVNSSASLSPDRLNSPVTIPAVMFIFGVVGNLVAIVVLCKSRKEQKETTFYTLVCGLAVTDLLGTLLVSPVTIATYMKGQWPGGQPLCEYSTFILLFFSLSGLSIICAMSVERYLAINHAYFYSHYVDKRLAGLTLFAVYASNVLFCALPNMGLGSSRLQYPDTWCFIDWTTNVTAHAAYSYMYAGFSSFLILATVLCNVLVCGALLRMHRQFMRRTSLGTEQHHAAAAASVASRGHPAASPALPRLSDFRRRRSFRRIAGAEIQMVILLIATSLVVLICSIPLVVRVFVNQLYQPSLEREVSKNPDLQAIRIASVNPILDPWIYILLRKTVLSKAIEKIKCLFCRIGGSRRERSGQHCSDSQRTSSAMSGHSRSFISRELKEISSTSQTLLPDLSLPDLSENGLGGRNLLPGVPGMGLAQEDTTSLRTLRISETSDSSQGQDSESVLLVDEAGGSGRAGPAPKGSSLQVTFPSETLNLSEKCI

Q: Which IC50 [1] does the source give for O=C(O)c1ccc(CNC(=O)c2ccc(Nc3ccccc3)c3ccn(Cc4ccc5ccccc5c4)c23)cc1 [Example 156, 4-((1-(naphthalen-2-ylmethyl)-4-(phenylamino)-1H-indole-7-carboxamido)methyl)benzoic acid] here?
A: Its IC50 is ≤ 0.1 µM.

Q: And the IC50 [2]?
A: The IC50 was < 0.1 µM.

Q: Which IC50 [1] does the source give for C[C@H](NC(=O)c1cc(-c2cccc(C#N)c2)cc2ccn(Cc3ccc(C(F)(F)F)cc3)c12)c1ccc(C(=O)O)cc1 [Example 52, (S)-4-(1-(5-(3-cyanophenyl)-1-(4-(trifluoromethyl)benzyl)-1H-indole-7-carboxamido)ethyl) benzoic acid] here?
A: Its IC50 is ≤ 0.1 µM.

Q: What about the IC50 [2] of the same compound?
A: The IC50 was < 0.1 µM.

Q: Which results are given for C[C@H](NC(=O)c1cc(-c2ccccc2)cc2cnn(Cc3cccc(C(F)(F)F)c3)c12)c1ccc(C(=O)O)cc1 [Example 135, (S)-4-(1-(5-phenyl-1-(3-(trifluoromethyl)benzyl)-1H-indazole-7-carboxamido)ethyl)benzoic acid]?
A: IC50 [1]: ≤ 0.1 µM; IC50 [2]: < 0.1 µM

Q: How did the IC50 [1] turn out when O=C(NC[C@H]1CC[C@H](C(=O)O)CC1)c1cc(-c2ccccc2)cc2cnn(Cc3cccc(C(F)(F)F)c3)c12 [Example 221, (1r,4r)-4-((5-phenyl-1-(3-(trifluoromethyl)benzyl)-1H-indazole-7-carboxamido)methyl)cyclohexane-1-carboxylic acid] was run?
A: The IC50 was ≤ 0.1 µM.

Q: What about the IC50 [2] of the same compound?
A: Its IC50 is < 0.1 µM.

Q: O=C(O)c1ccc(CNC(=O)c2cc(-c3ccccc3)cc3ccn(Cc4ccc(C(F)(F)F)cc4)c23)cc1 [Example 2, 4-((5-phenyl-1-(4-(trifluoromethyl)benzyl)-1H-indole-7-carboxamido)methyl)benzoic acid] was tested. Which IC50 [1] did it give?
A: The IC50 was ≤ 0.1 µM.

Q: What about the IC50 [2] of the same compound?
A: The IC50 was < 0.1 µM.

Q: For C[C@H](NC(=O)c1cc(-c2ccccc2)cc2ccn(Cc3cccc(C(F)(F)F)c3)c12)c1ccc(C(=O)O)cc1 [Example 129, (S)-4-(1-(5-phenyl-1-(3-(trifluoromethyl)benzyl)-1H-indole-7-carboxamido)ethyl)benzoic acid], which IC50 [1] is on record?
A: Its IC50 is ≤ 0.1 µM.

Q: And the IC50 [2]?
A: The IC50 was < 0.1 µM.

Q: With O=C(O)c1ccc(CNC(=O)c2cc(-c3cc(F)cc(F)c3)cc3ccn(Cc4ccc(C(F)(F)F)cc4)c23)cc1 [Example 9, 4-((5-(3,5-difluorophenyl)-1-(4-(trifluoromethyl)benzyl)-1H-indole-7-carboxamido)methyl)benzoic acid] as the compound, how does the IC50 [1] read?
A: Its IC50 is ≤ 0.1 µM.

Q: And the IC50 [2]?
A: The IC50 was < 0.1 µM.

Q: What does the source list for N#Cc1cccc(-c2cc(C(=O)NCc3ccc(C(=O)O)cc3)c3c(ccn3Cc3ccc(C(F)(F)F)cc3)c2)c1 [Example 7, 4-((5-(3-cyanophenyl)-1-(4-(trifluoromethyl)benzyl)-1H-indole-7-carboxamido)methyl)benzoic acid]?
A: IC50 [1]: ≤ 0.1 µM; IC50 [2]: < 0.1 µM

Q: With N#Cc1cccc(-c2cc(C(=O)NCc3ccc(C(=O)O)cc3)c3c(Sc4ccc(C(F)(F)F)cc4)c[nH]c3c2)c1 [Example 117, 4-((6-(3-cyanophenyl)-3-((4-(trifluoromethyl)phenyl)thio)-1H-indole-4-carboxamido)methyl)benzoic acid] as the compound, how does the IC50 [1] read?
A: The IC50 was ≤ 0.1 µM.

Q: And the IC50 [2]?
A: Its IC50 is < 0.1 µM.

Q: How did the IC50 [1] turn out when COc1cccc(-c2cc(C(=O)NCc3ccc(C(=O)O)cc3)c3c(ccn3Cc3ccc(C(F)(F)F)cc3)c2)c1 [Example 76, 4-((5-(3-methoxyphenyl)-1-(4-(trifluoromethyl)benzyl)-1H-indole-7-carboxamido)methyl)benzoic acid] was run?
A: The IC50 was ≤ 0.1 µM.

Q: And the IC50 [2]?
A: The IC50 was < 0.1 µM.

Q: Which results are given for C[C@H](NC(=O)c1cc(-c2ccccc2)cc2nnn(Cc3ccc4ccccc4c3)c12)c1ccc(C(=O)O)cc1 [Example 189]?
A: IC50 [1]: ≤ 0.1 µM; IC50 [2]: < 0.1 µM

Q: How did the IC50 [1] turn out when C[C@H](NC(=O)c1cc(-c2cc(F)cc(F)c2)cc2cnn(Cc3ccc(C(F)(F)F)cc3)c12)c1ccc(C(=O)O)cc1 [Example 101, (S)-4-(1-(5-(3,5-difluorophenyl)-1-(4-(trifluoromethyl)benzyl)-1H-indazole-7-carboxamido)ethyl)benzoic acid] was run?
A: Its IC50 is ≤ 0.1 µM.

Q: And the IC50 [2]?
A: Its IC50 is < 0.1 µM.
